The term IC50 denotes the concentration that gives 50% inhibition. The low end stands for greater potency, the high end for weaker potency.

For assay [1], the target named is indicated HLA alleles. In words: Affinity of mutant EGFR neopeptides for indicated HLA alleles. The assay is classed as binding, human.
The subject of assay [2] is indicated HLA alleles. The assay can be described thus: Stability of mutant EGFR neopeptides with the HLA alleles. The assay is classed as binding, human. How it is done: (§1) Multiple peptides containing neoepitopes in the table below were either expressed or loaded onto antigen presenting cells. Mass spectrometry was then performed and the affinity of the neoepitopes for indicated HLA alleles were determined, and the stability of the neoepitopes with the HLA alleles were determined.

In assay [3] the test system is indicated HLA alleles. In words: Stability of GATA3 neoORF neoepitopes with the HLA alleles (Example 9, Table 4). The assay is classed as binding, human. How it is done: (§2) Multiple peptides containing the neoepitopes in Table 4 below were expressed or loaded onto antigen presenting cells (APCs). Mass spectrometry was then performed and the affinity of the neoepitopes for the indicated HLA alleles and stability of the neoepitopes with the HLA alleles was determined.

For assay [4], the target named is indicated HLA alleles (Homo sapiens, UniProt P01889). In words: Affinity of GATA3 neoORF neoepitopes for the indicated HLA alleles (Example 9, Table 4). The assay is classed as binding. How it is done: as §2
The target of assay [5] is T1, HLA-B08:01 (Homo sapiens, UniProt P01889, A93T/A95T/D138N/E176V/E187T/K202T/Q94N/R180D/S35A/V36M/Y33D/Y91F). The assay can be described thus: biochemical.
Assay [6] deals with T1, HLA-B08:01. The assay can be described thus: Stability measurements, pMHC-I dissociation with 125I light chain (Example 20). The assay is classed as binding. To be noted: for Average half-life: average of experiments 1 and 2. How it is done:
(§3) To measure the binding stability of peptides to Class I MHC, synthetic genes encoding biotinylated MHC-I heavy and light chains are expressed in E. coli and purified from inclusion bodies using standard methods. […] These reactions were carried out in streptavidin coated microplates to bind the biotinylated MHC-I heavy chains to the surface and allow measurement of radiolabeled light chain to monitor complex formation. Dissociation was initiated by addition of higher concentrations of unlabeled light-chain and incubation at 37° C. Stability was defined as the length of time in hours it takes for half of the complexes to dissociate, as measured by scintillation counts. Duplicate measurements were performed. The average of the two measurements was taken as the stability.

Assay [7] relates to indicated HLA alleles. The assay can be described thus: Stability of mutant BTK neopeptides with the HLA alleles. The assay is classed as binding, human. The following applies: BTK_C481S. As for the experimental part:
as §1

Assay [8] addresses T2, HLA-B07:02 (Homo sapiens, UniProt P01889). The assay can be described thus: Stability measurements, pMHC-I dissociation with 125I light chain (Example 20). The assay is classed as binding. How it is done: as §3
Assay [9] deals with T2, HLA-B07:02. The assay can be described thus: Affinity measurements, competition with radiolabeled peptide (Example 20). The assay is classed as binding.
Assay [10] deals with T3, HLA-A02:01 (Homo sapiens, UniProt P04439, D140Y/D185E/D98H/E176V/E277Q/G131W/G231S/I119V/I121R/I166T/I218V/L300P/L318F/N151K/N90K/P208A/P217A/Q86G/Q94H/R138H/R169H/T345S). The assay can be described thus: Detection of GATA3 neoORF peptides by mass spectrometry (Example 8). The assay is classed as cell-based. To be noted: 293T cells transduced with GATA3 neoORF lentiviral vector, expressing HLA-A02:01; peptides eluted from HLA-peptide complexes, MS/MS.

The target in assay [11] is T3, HLA-A02:01. In words: Stability measurements, pMHC-I dissociation with 125I light chain (Example 20). The assay is classed as binding. The following applies: for Average half-life: average of experiments 1 and 2. As for the experimental part: as §3
Assay [12] relates to antigen specific CD8+ T cells. In words: Antigen specific CD8+ T cell induction monitored with pMHC multimers (Example 10). The assay is classed as cell-based, human. To be noted: healthy donor PBMCs, flow cytometry after stimulation or induction. How it is done:
PBMC samples from a human donor were used to perform antigen specific T cell induction. CD8^+ T cell inductions were analyzed after manufacturing T cells. Cell samples can be taken out at different time points for analysis. pMIHC multimers were used to monitor the fraction of antigen specific CD8^+ T cells in the induction cultures. […] FIG. 9A depicts an exemplary result of a T cell response assay using PBMCs from 6 different healthy donors showing the fraction of antigen specific CD8^+ T cells that responded to […] peptide analyzed by flow cytometry after stimulation or induction. […] FIG. 9B depicts an exemplary result of a T cell response assay using PBMCs from a healthy donor showing fraction of antigen specific CD8^+ T cells that responded to […] peptide analyzed by flow cytometry after stimulation or induction.
For orientation: Flow cytometry measures light scatter and fluorescence of single cells or particles in a stream.

Another assay deals with CD8+ T cells. In words: Immunogenicity on MHC I: FLT3L/mDC long term stimulation of healthy donor PBMCs, multimer readout (Example 23). To be noted: A02:01.
The target of assay [13] is indicated HLA alleles. In words: Affinity of GATA3 neoORF neoepitopes for the indicated HLA alleles (Example 9, Table 4). The assay is classed as binding, human. The following applies: Allele A02.01; read-out: Observed MHC affinity. How it is done:
as §2

Consider `CC[C@H](C)[C@H](NC(=O)[C@H](CC(C)C)NC(=O)[C@H](CCC(N)=O)NC(=O)[C@@H](NC(=O)[C@@H](NC(=O)[C@H](CO)NC(=O)[C@@H](NC(=O)[C@H](CC(C)C)NC(=O)[C@@H](N)CS)[C@@H](C)O)[C@@H](C)O)C(C)C)C(=O)N[C@@H](CCSC)C(=O)O`, for which the Kd at indicated HLA alleles [1] (EGFR T790M, HLA A01.01) amounted to 8.28 µM; on indicated HLA alleles [1] (EGFR_T790M, HLA A02.01) it was 0.537 µM. For the same molecule, the “Stability (1/2 hr)” value is 0 h in the assay with indicated HLA alleles [2] (EGFR T790M, HLA A01.01) and 0 h in the assay with indicated HLA alleles [2] (EGFR_T790M, HLA A02.01).
Consider `CC(C)C[C@H](NC(=O)[C@@H]1CCCN1C(=O)[C@H](CCC(N)=O)NC(=O)[C@H](CC(C)C)NC(=O)[C@H](C)NC(=O)[C@H](CC(C)C)NC(=O)[C@H](Cc1c[nH]cn1)NC(=O)[C@@H]1CCCN1C(=O)[C@@H](N)CCC(=O)O)C(=O)O`, for which the “Observed MHC stability” value is 7.2 h with indicated HLA alleles [3] (Allele B07:02) and 0 h in the assay with indicated HLA alleles [3] (Allele B08:01). The same molecule returned a Kd at indicated HLA alleles [4] of 0.017 µM.
Turning to `CC[C@H](C)[C@H](NC(=O)[C@H](CCCCN)NC(=O)[C@H](CO)NC(=O)[C@H](CCC(=O)O)NC(=O)[C@H](C)NC(=O)[C@H](CCCCN)NC(=O)[C@H](CC(C)C)NC(=O)[C@@H](N)Cc1ccccc1)C(=O)N[C@@H](CCSC)C(=O)N[C@@H](Cc1ccccc1)C(=O)O`, the IC50 at HLA-B08:01 [5] stood at 0.09 µM. For the same molecule, on HLA-B08:01 [6], the “Experiment 2 half-life” value came out at 0 min and the Average half-life came to 0 min. For the same molecule, in the assay with indicated HLA alleles [3] (Allele B08:01), the “Observed MHC stability” value was 0 h.
As for `CC[C@H](C)[C@H](N)C(=O)N[C@@H](CCSC)C(=O)N[C@@H](CCCCN)C(=O)N1CCC[C@H]1C(=O)N[C@@H](CCCCN)C(=O)N[C@@H](CCCNC(=N)N)C(=O)N[C@@H](CC(=O)O)C(=O)NCC(=O)N[C@@H](Cc1ccc(O)cc1)C(=O)N[C@@H](CCSC)C(=O)O`, the IC50 on HLA-B08:01 [5] was 0.0402 µM. At HLA-B08:01 [6], the “Experiment 1 half-life” value was found to be 24 min, the “Experiment 2 half-life” value stood at 24 min and the Average half-life came to 24 min. The “Observed MHC stability” value in the assay on indicated HLA alleles [3] (Allele B08:01) is 0.4 h.
`CC[C@H](C)[C@H](NC(=O)[C@@H](N)CC(C)C)C(=O)N[C@@H](CCSC)C(=O)N[C@@H](CCC(N)=O)C(=O)N[C@@H](CC(C)C)C(=O)N[C@@H](CCSC)C(=O)N1CCC[C@H]1C(=O)N[C@@H](Cc1ccccc1)C(=O)NCC(=O)N[C@@H](CS)C(=O)O` gave a Kd at indicated HLA alleles [1] (EGFR_T790M, HLA A02.01) of 0.132 µM. The “Stability (1/2 hr)” value in the assay on indicated HLA alleles [2] (EGFR_T790M, HLA A02.01) was 0.3813 h.
Turning to `CSCC[C@H](N)C(=O)N[C@@H](C)C(=O)N[C@@H](CC(N)=O)C(=O)NCC(=O)N[C@@H](CO)C(=O)N[C@@H](CC(C)C)C(=O)N[C@@H](CC(C)C)C(=O)N[C@@H](CC(N)=O)C(=O)N[C@@H](Cc1ccc(O)cc1)C(=O)N[C@@H](CC(C)C)C(=O)O`, the “Stability (1/2 hr)” value in the assay with indicated HLA alleles [7] (HLA A02.01), in the assay on indicated HLA alleles [7] (HLA B07.02) and in the assay with indicated HLA alleles [7] (HLA B08.01) was 0 h throughout.
As for `CSCC[C@H](N)C(=O)N[C@@H](Cc1ccccc1)C(=O)N[C@@H](C)C(=O)N[C@H](C(=O)N[C@@H](CC(C)C)C(=O)N[C@@H](CCC(N)=O)C(=O)N[C@@H](CCCNC(=N)N)C(=O)N[C@@H](CO)C(=O)N[C@@H](CO)C(=O)N[C@@H](CC(C)C)C(=O)O)[C@@H](C)O`, the entries for the “Experiment 2 half-life” value on HLA-B07:02 [8] and on HLA-B08:01 [6] were 0.0 h and 0 min, respectively. Besides, the Average half-life at HLA-B07:02 [8] (average of experiments 1 and 2) stood at 0.0 h; at HLA-B08:01 [6], 0 min. Also, the IC50 on HLA-B07:02 [9] was 0.35 µM. For the same molecule, the “Observed MHC stability” value in the assay with indicated HLA alleles [3] (Allele B07:02) and with indicated HLA alleles [3] (Allele B08:01) was 0 h each time. Besides, the Kd on indicated HLA alleles [4] was determined as 0.267 µM.
Consider `CSCC[C@H](NC(=O)[C@H](CC(C)C)NC(=O)[C@H](CCC(N)=O)NC(=O)[C@@H](N)CCSC)C(=O)N1CCC[C@H]1C(=O)N[C@@H](Cc1ccccc1)C(=O)NCC(=O)N[C@@H](CS)C(=O)N[C@@H](CC(C)C)C(=O)N[C@@H](CC(C)C)C(=O)O`, for which the “Stability (1/2 hr)” value is 0.3811 h in the assay with indicated HLA alleles [2] (EGFR_T790M, HLA A02.01); 0 h in the assay with indicated HLA alleles [2] (EGFR_T790M, HLA A24.02); 0 h in the assay on indicated HLA alleles [2] (EGFR_T790M, HLA B08.01).
In the case of `CSCC[C@H](NC(=O)[C@@H](N)CO)C(=O)N[C@@H](CC(C)C)C(=O)N[C@H](C(=O)NCC(=O)N1CCC[C@H]1C(=O)N1CCC[C@H]1C(=O)N[C@@H](C)C(=O)N[C@@H](CCCNC(=N)N)C(=O)N[C@H](C(=O)O)C(C)C)[C@@H](C)O`, the “detected by mass spectrometry” value at HLA-A02:01 [10] was “detected”. Besides, on HLA-A02:01 [11], the “Experiment 1 half-life” value was determined as 1300 min, the “Experiment 2 half-life” value is 1310 min and the Average half-life worked out at 1300 min. For the same molecule, the “fraction of antigen specific CD8+ T cells that responded to peptide” value in assay [12] is “increase in the fraction of antigen specific T cells”. In the assay with CD8+ T cells (naive CD8+ induction confirmed over two stimulations), this molecule displayed a Percent positive inductions of 20%. Further, the “Number of wells with a reactive TCR” value in the assay with CD8+ T cells (of 5 wells tested, healthy donor PBMCs) came to 1. In addition, the “Observed MHC stability” value with indicated HLA alleles [3] (Allele A02.01) came out at 21.7 h. The Kd on indicated HLA alleles [13] was 0.014 µM.
`CC[C@H](C)[C@H](NC(=O)[C@H](CCCCN)NC(=O)[C@H](CO)NC(=O)[C@H](CCC(=O)O)NC(=O)[C@H](C)NC(=O)[C@H](CCCCN)NC(=O)[C@H](CC(C)C)NC(=O)[C@H](Cc1ccccc1)NC(=O)[C@H](CCSC)NC(=O)[C@@H](N)Cc1ccc(O)cc1)C(=O)O`: the “Experiment 1 half-life” value at HLA-A02:01 [11] turned out to be 36 min; on HLA-B08:01 [6] it was 24 min. Further, the entries for the “Experiment 2 half-life” value on HLA-A02:01 [11] and at HLA-B08:01 [6] were 36 min and 30 min, respectively. The Average half-life at HLA-A02:01 [11] came out at 36 min; at HLA-B08:01 [6], 24 min. For the same molecule, the “Observed MHC stability” value with indicated HLA alleles [3] (Allele A02.01) turned out to be 0.6 h; in the assay with indicated HLA alleles [3] (Allele A24:02) it was 1.2 h; in the assay with indicated HLA alleles [3] (Allele B08:01), 0.4 h.

(Values after patent publication US20210275657A1, “NEOANTIGENS AND USES THEREOF” (BioNTech US Inc., priority 2018, published 2021).)
